From patent US20160068883A1, “MICRO-FLUIDIC MIXER AND METHOD OF DETERMINING PATHOGEN INACTIVATION VIA ANTIMICROBIAL SOLUTIONS” (The United States of America, as represented by the …, priority 2014, published 2016)
Several values for one entry are separate records, joined by “and”; a condition that tells them apart may be missing. Identical values can stand only once.

Assays:
E. coli O157:H7 = E. coli O157:H7 inactivation by free chlorine in the micro-fluidic mixer (MPN enumeration); format: cell-based, Escherichia coli O157:H7 (RM4406, ATCC 700728)
E. coli = assay: Decimal reduction time (D-value) calculated from the Watson and Hom inactivation models; parameters: species or system Escherichia coli O157:H7
Text: Kinetic modeling was also applied to simplify the complicated disinfection phenomena of produce wash system. Three models that are commonly used for studying bacterial disinfection kinetics with chemical-based disinfectant, including the Chick-Watson Model, the Hom Model, and the Selleck Model.
Watson developed an empirical logarithmic equation to relate the inactivation constant (k) to disinfectant concentration (C) and reaction time (t):
The Hom model is a generalized empirical equation of the Chick-Watson model considering chlorine disinfection as a pseudo first-order reaction:
The D-value here was calculated based on the empirical models developed in this study, namely the Watson model (equation 3) and the Hom model (equation 5). […] By increasing chlorine concentration to […], the D-value reduces to […] respectively.

## OCl [free chlorine, hypochlorous acid]
E. coli O157:H7; 1 mg/L free chlorine
  contact time to achieve a 5-log reduction: more than 1.2 second
E. coli O157:H7; 1.0 mg/L free chlorine, 0.25 second contact, suspension 1×10^8 CFU/mL
  log reduction of E. coli O157:H7: 0.14 log
E. coli O157:H7; 1.0 mg/L free chlorine, 1.00 second contact, suspension 1×10^8 CFU/mL
  log reduction of E. coli O157:H7: 4.97 log
E. coli O157:H7; 5 mg/L free chlorine
  contact time to achieve a 5-log reduction: 0.50 second
E. coli O157:H7; 10 mg/L free chlorine
  contact time to achieve a 5-log reduction: 0.25 second and 0.2 second
E. coli O157:H7; 10.0 mg/L free chlorine, 0.25 second contact
  log reduction of E. coli O157:H7: 5.77 log
E. coli O157:H7; 10 mg/L free chlorine, listed as chlorine
  contact time to achieve a 5-log reduction: 0.2 second
E. coli O157:H7; 20 mg/L free chlorine
  contact time to achieve a 5-log reduction: 0.25 second
E. coli O157:H7; chlorine 50 mg/L, pathogen solution 10^8 MPN/mL, without dechlorinating solution
  bacterial survival in collected effluent (total pathogen inactivation control): no bacterial survival detected
E. coli; 1 mg/L free chlorine
  D-value (decimal reduction time, 90% / one log reduction): 28.06 milliseconds
E. coli; chlorine 5 (so in the source)
  D-value (decimal reduction time, 90% / one log reduction): 5.72 milliseconds
E. coli; chlorine 10 (so in the source)
  D-value (decimal reduction time, 90% / one log reduction): 2.87 milliseconds
E. coli; chlorine 20 (so in the source)
  D-value (decimal reduction time, 90% / one log reduction): 1.43 milliseconds
